Experimental data from patent publication US4138423A, “N-dithio carbamoyl oximes” (priority 1976, dated 1979).
In brackets after ≈: the same amount, converted by molar mass.

What was measured:
[1] = peroral toxicity to mammals (rat); conditions: in vivo, po, peroral, Table I, read-out: A.O. Rat. LD50
Method: (§1) Certain of these compositions were also evaluated to determine their peroral toxicity to mammals. The animal selected for this experiment was the rat. The test results obtained are expressed in terms of the number of milligrams of compositions per kilogram of weight of the animal required to achieve a mortality rate of 50 percent (LD50).

[2] = tested on: southern armyworm; assay: Southern Armyworm Leaf Spray Test; conditions: Spodoptera eridania, read-out: Armyworm LD50
Method: The thus-prepared stock suspension contained 0.5 percent by weight of compound. The test concentrations in parts per million by weight employed in the tests described hereinbelow were obtained by appropriate dilutions of the stock suspension with water. The test procedures were as follows:
Larvae of the southern armyworm (Prodenia eridania, (Cram.)), reared on Tendergreen bean plants at a temperature of 80±5° F. and a relative humidity of 50±5 percent, constituted the test insects.
Potted Tendergreen bean plants of standard height and age were placed on a revolving turntable and sprayed with 100-110 milliliters of test compound formulation by use of a DeVilbiss spray gun set at 10 psig air pressure. This application, which lasted 25 seconds, was sufficient to wet plants to run-off. As a control, 100-110 milliliters of a water-acetone-emulsifier solution containing no test compound were also sprayed on infested plants. When dry, the paired leaves were separated and each one was placed in a 9 centimeter Petri dish lined with moistened filter paper. Five randomly selected larvae were introduced into each dish and the dishes were closed. The closed dishes were labeled and held at 80-85° F. for three days. Although the larvae could easily consume the whole leaf within twenty-four hours, no more food was added. Larvae which were unable to move the length of the body, even upon stimulation by prodding, were considered dead. Percent mortality was recorded for various concentration levels.
(§3) The test procedures described above were employed in these experiments in order to determine the LD50 (number of parts per million of active ingredients required to achieve fifty percent mortality of the insects tested) for each of the compositions tested.

[3] = tested on: Mexican bean beetle; assay: Mexican Bean Beetle Leaf Spray Test; conditions: Epilachna varivestis, read-out: Beetle LD50
Method: (§2) The test procedures were as follows:
The closed dishes were labeled and held at a temperature of 80±5° F. for three days. Although the larvae could easily consume the leaf within 24 to 48 hours, no more food was added.

[4] = tested on: house flies; assay: Fly Bait Test; conditions: Musca domestica, read-out: Fly LD50
Method: The test concentrations in parts per million by weight employed in the tests described hereinbelow were obtained by appropriate dilutions of the stock suspension with water. The test procedures were as follows:
Four to six day old adult house flies (Musca domestica, L.) reared according to the specifications of the Chemical Specialities Manufacturing Association (Blue Book, McNair-Dorland Co., N.Y. 1954; pages 243-244, 261) under controlled conditions of 80±5° F. and 50±5 percent relative humidity, were the test insects. The flies were immobilized by anesthetizing with carbon dioxide and twenty five immobilized individuals,males and females, were transferred to a cage consisting of a standard food strainer about five inches in diameter which was inverted over a wrapping-paper-covered surface. […] Ten milliliters of the test formulation were added to a souffle cup containing a one-inch square of an absorbent cotton pad. This bait cup was introduced and centered on the blotting paper under the food strainer prior to admitting the anesthetized flies. The caged flies were allowed to feed on the bait for twenty four hours, at a temperature of 80±5° F. and the relative humidity of 50±5 percent.
as §3

[5] = tested on: bean aphid; assay: whole plant or invertebrate; conditions: foliar, read-out: Aphid LD50
[6] = tested on: two-spotted mite; assay: Mite Foliage Spray Test; conditions: Tetranychus urticae, foliar, read-out: Mite LD50
Method: as §2
Adults and nymphal stages of the two-spotted mite (Tetranychus urticae Koch), reared on Tendergreen bean plants at 80±5° percent relative humidity, were the test organisms. Infested leaves from a stock culture were placed on the primary leaves of two bean plants six to eight inches in height, growing in a two- and-a-half inch clay pot. 150-200 mites, a sufficient number for testing, transferred from the excised leaves to the fresh plants in a period of twenty four hours. Following the twenty four hour transfer period, the excised leaves were removed from the infested plants. […] The sprayed plants were held at 80±5 percent relative humidity for six days, after which a mortality count of motile forms was made. […] Any individual which was capable of locomotion upon prodding was considered living.

[7] = tested on: rat; assay: peroral toxicity to mammals (rat); conditions: in vivo, po
Method: as §1

[8] = tested on: cotton, tomatoes, beans and corn; assay: phytotoxicity to crops; conditions: compared with N-methyl carbamate compounds

CSC(C)=NOC(=O)N(C)SSC(C)(C)C [Example I, 1-Methylthioacetaldehyde O-[N-methyl-N-(2-methyl-2-propanethiosulfenyl)carbamoyl]oxime]
LD50 [1]: 143 mg/kg | LC50 [2]: 6 µg/mL (≈ 21.2 µM) | LC50 [3]: 40 µg/mL (≈ 142 µM) | LC50 [4]: 4 µg/mL (≈ 14.2 µM)

CSC(C)=NOC(=O)N(C)SSC(C)(C)C [Example II (Table II)]
LC50 [5]: 1.3 µg/mL (≈ 4.6 µM) | LC50 [6]: > 500 µg/mL

CSC(C)=NOC(=O)N(C)SSC1CCCCC1 [Example II, 1-Methylthioacetaldehyde O-[N-methyl-N-(cyclohexanethiosulfenyl)carbamoyl]oxime]
LD50 [1]: 101 mg/kg

CC(=NOC(=O)N(C)SSC(C)(C)C)SC(C)C [Example III (Table II)]
LC50 [5]: 9 µg/mL (≈ 29 µM) | LC50 [6]: 125 µg/mL (≈ 403 µM)

CSC(C)=NOC(=O)N(C)SSc1ccc(Cl)cc1 [Example III, 1-Methylthioacetaldehyde O-[N-methyl-N-(4-chlorophenylthiosulfenyl)carbamoyl]oxime]
LD50 [1]: 160 mg/kg

CC(=NOC(=O)N(C)SSC(C)C)SCCC#N [IV]
LD50 [1]: 14.1 mg/kg

CSC(C)=NOC(=O)N(C)SSc1ccccc1 [IX, 1-Methylthioacetaldehyde O-[N-methyl-N-(phenylthiosulfenyl)carbamoyl]oxime]
LD50 [1]: 143 mg/kg

CNC(=O)ON=C(C)SC [Methomyl, reference compound]
Rat LD50 [7]: 48 mg/kg | phytotoxicity to important economic crops [8]: highly susceptible to phytotoxic injury | LC50 [2]: 11 µg/mL (≈ 67.8 µM) | LC50 [6]: > 500 µg/mL | LC50 [3]: 70 µg/mL (≈ 432 µM) | LC50 [4]: 4 µg/mL (≈ 24.7 µM)

CSC(C)=NOC(=O)N(C)SSc1ccc(C)cc1 [X, 1-Methylthioacetaldehyde O-[N-methyl-N-(4-methylphenylthiosulfenyl)carbamoyl]oxime]
LD50 [1]: 63.5 mg/kg

CC(=NOC(=O)N(C)SSC(C)(C)C)SCCC#N [XIII]
LD50 [1]: 10 mg/kg

CC(=NOC(=O)N(C)SSC(C)(C)C)SC(C)C [XII]
LD50 [1]: 30.8 mg/kg | LC50 [2]: 35 µg/mL (≈ 113 µM) | LC50 [3]: 31 µg/mL (≈ 99.8 µM) | LC50 [4]: 42 µg/mL (≈ 135 µM)

CSC(C)(C)C=NOC(=O)N(C)SSc1ccc(Cl)cc1 [XIV]
LD50 [1]: 2 mg/kg

CSC(C)=NOC(=O)N(C)SSc1ccc(C(C)(C)C)cc1 [XI]
LD50 [1]: 180 mg/kg

CSC(C)=NOC(=O)N(C)SSC(C)C [XV]
LD50 [1]: 113 mg/kg
